# Publication PMC5749684, “Tetrahydrocarbazoles are a novel class of potent P-type ATPase inhibitors with antifungal activity” (PLoS ONE, 2018)
# Columns and labels:
# [1] = system: Candida glabrata Cg003; test: microbe, parasite or virus in culture; type: cell-based; details: Nakaseomyces glabratus, CG003, 24 h, read-out: Growth inhibition MIC Candida glabrata Cg003
# Method: (§1) Fungal isolates were purchased from American Type Culture Collection, except for C. glabrata strain Cg003, which was kindly provided by Julius Subik, Comenius University in Bratislava, Slovak Republic. […] Saccharomyces cerevisiae (ATCC 9763), Candida albicans (ATCC 90028), Candida albicans (SC5314), Candida glabrata (ATCC 90030), Candida glabrata (Cg003) and Candida krusei (ATCC 6258) were grown in Sabouraud broth (40 g/L D-glucose, 10 g/L peptone, pH 5.6) or YPD (10 g/L yeast extract, 20 g/L Bacto-peptone, 20 g/L glucose) medium to mid log phase, aliquoted into 20% (v/v) glycerol and cryopreserved as stocks at -80°C. For each growth assay, cells from these stocks were diluted in sterile water to OD600 = 0.025, which corresponds to a final starting inoculum of 0.5–2.5 x 10^5 CFU/mL. Growth assays were carried out by pipetting 3 μL compound dissolved in DMSO, 100 μL cell suspension and 97 μL 2 x RPMI media (20.8 g/L RPMI-1640 (Sigma-Aldrich catalog number R6504) 330 mM MOPS, 36 g/L glucose) into a microtiter plate and incubating for 24 h at 34°C, followed by OD measurement at 490 nm.
# [2] = system: Candida krusei ATCC 6258; test: Fungal growth inhibition, C. krusei; type: cell-based; details: Pichia kudriavzevii, ATCC6258; MIC defined as 50% growth inhibition, 24 h, n = 3–6
# Source text: (§2) Fungal isolates were purchased from American Type Culture Collection, except for C. glabrata strain Cg003, which was kindly provided by Julius Subik, Comenius University in Bratislava, Slovak Republic. Cg003 is a clinical isolate, characterized to be resistant to fluconazole and itraconazole due to overexpression of the multidrug resistance efflux pumps Cdr1p and Cdr2p. Saccharomyces cerevisiae (ATCC 9763), Candida albicans (ATCC 90028), Candida albicans (SC5314), Candida glabrata (ATCC 90030), Candida glabrata (Cg003) and Candida krusei (ATCC 6258) were grown in Sabouraud broth (40 g/L D-glucose, 10 g/L peptone, pH 5.6) or YPD (10 g/L yeast extract, 20 g/L Bacto-peptone, 20 g/L glucose) medium to mid log phase, aliquoted into 20% (v/v) glycerol and cryopreserved as stocks at -80°C. For each growth assay, cells from these stocks were diluted in sterile water to OD600 = 0.025, which corresponds to a final starting inoculum of 0.5–2.5 x 10^5 CFU/mL. Growth assays were carried out by pipetting 3 μL compound dissolved in DMSO, 100 μL cell suspension and 97 μL 2 x RPMI media (20.8 g/L RPMI-1640 (Sigma-Aldrich catalog number R6504) 330 mM MOPS, 36 g/L glucose) into a microtiter plate and incubating for 24 h at 34°C, followed by OD measurement at 490 nm. The minimum inhibitory concentration (MIC) was defined as 50% growth inhibition of the microorganism as this measurement best represented the antifungal activity of the compounds. Standard errors were typically below 5%.
# [3] = system: Candida albicans SC5314; test: Fungal growth inhibition, C. albicans SC5314; type: cell-based; details: MIC defined as 50% growth inhibition, 24 h, n = 3–6
# Source text: as §2
# [4] = system: Candida glabrata ATCC 90030; test: Fungal growth inhibition, C. glabrata ATCC 90030; type: cell-based; details: Nakaseomyces glabratus, ATCC90030; MIC defined as 50% growth inhibition, 24 h, n = 3–6
# Source text: as §2
# [5] = system: C. albicans cells; test: Post-antifungal effect determination; type: cell-based, Candida albicans; details: 1 h exposure of C. albicans; AMB 0.54 μM, VRC 2.8 μM, 6 and 8 20 μM
# Method: The post-antifungal effect (PAFE) of antifungal drugs on C. albicans was determined as described by others, with modifications. Briefly, 2 × 10^6 CFU/mL C. albicans cells were incubated in 1 mL RPMI-1640 media for 1 h at 30°C with gentle agitation in the presence of amphotericin B (0.54 μM), voriconazole (2.8 μM) or tetrahydrocarbazole compound (20 μM). Cells were subsequently washed in RPMI media 3 times by centrifugation (3 minutes, 5,000 x g) and finally re-suspended in 1 mL fresh RPMI medium and incubated at 30°C for 24 h. At various time intervals, a 100 μL aliquot was removed, serially diluted (10-fold) in saline (0.9% NaCl), and 30 μL aliquots were spread on YPD agar. The agar plates were incubated at 30°C for 48 h and the number of CFU/mL of culture was determined. C. albicans cells treated with DMSO (1%, v/v) served as a control. The number of CFU/mL obtained at specified time intervals was plotted against time (h) following compound removal. An increase in the CFU/mL of culture signifies growth and multiplication of yeast cells. The duration required for the antifungal drug-treated cells to recover from the inhibitory effect of the drug as indicated by an increase in CFU/mL of culture is defined as the PAFE.
# [6] = system: Saccharomyces cerevisiae ATCC 9763; test: Fungal growth inhibition, S. cerevisiae ATCC 9763; type: cell-based; details: ATCC9763, MIC defined as 50% growth inhibition, 24 h, n = 3–6
# Source text: as §2
# [7] = system: C. albicans (SC5314) cells; test: Time-kill assay; type: cell-based, Candida albicans; details: AMB 0.54 μM, VRC 2.8 μM, 6 and 8 20 μM
# Method: C. albicans (SC5314) cells (1 x 10^5 CFU/mL) were incubated in 10 mL RPMI-1640 media at 30°C with gentle agitation (150 rpm) in the presence of amphotericin B (0.5 μM), voriconazole (2.8 μM) or tetrahydrocarbazole compound (20 μM). At the indicated time points (0, 3, 6, and 24 h), a 100 μL aliquot was removed, serially diluted (10 fold) in saline (0.9% NaCl), and 30 μL aliquots were spread on YPD agar. CFU were counted after incubation at 30°C for 48 h. C. albicans cells treated with DMSO (1%, v/v) served as a control. 50 CFU/mL was selected as the lower limit of quantitation.
# [8] = system: HepG2 cells; test: Hep G2 viability assay (XTT); type: cell-based, human; details: HepG2 proliferation, 72 h, XTT
# Method: In each well of a 96 well tissue culture plate (Greiner, catalog number GR-655180) 10,000 human hepatocyte HepG2 cells (Sigma-Aldrich, catalog number 85011430) were plated in 200 μL growth media (EMEM (Sigma-Aldrich, catalog number M2279), 2 mM L-Glutamine (Biological Industries, catalog number 03-020-1B), 1% non-essential amino acids (Biosera, catalog number XC-E1154/100), 10% fetal bovine serum (Biological Industries, catalog number BI-04-007-1A)), and incubated overnight at 37°C and 5% CO2. The following day, fresh growth media plus 2 μL compound in DMSO was added. The plate was incubated for a further 72 h at 37°C and 5% CO2. The media was replaced with 100 μL freshly prepared 0.5 mg/mL XTT sodium salt solution (Sigma-Aldrich, catalog number X4251) in RPMI-1640 (Sigma-Aldrich, catalog number R7509) with 3.83 μg/mL phenazine methosulfate (Sigma-Aldrich, catalog number P9625) and incubated 2–3 h at 37°C and 5% CO2. The color reaction was measured on a Victor X5 plate reader (Perkin-Elmer) at OD450, and the half maximal effective concentration (EC50) was calculated indicating the potency of tetrahydrocarbazole derivatives to inhibit HepG2 cell growth. Tamoxifen (Sigma-Aldrich, catalog number 85256) was used as a positive control compound while DMSO served as a negative control.
# [9] = system: Na^+,K^+-ATPase; set-up: method as in PMID 19289472; details: cited from earlier work
# [10] = molecular target: T1, Saccharomyces cerevisiae Pma1 (Saccharomyces cerevisiae, UniProt P05030); test: ATP hydrolysis inhibition, S. cerevisiae Pma1; type: biochemical; details: ATP hydrolysis IC50 Saccharomyces cerevisiae Pma1, library hit compounds, n = 3
# T1 construct: containing the full-length cDNA of the S. cerevisiae plasma membrane H^+-ATPase isoform PMA1; made in house; host or cells: Saccharomyces cerevisiae RS72
# Method: The compound libraries were purchased from Enamine Ltd, Ukraine and Chembridge Corp, USA. Library screening was performed in 96 well plates format and each compound was screened in the ATP hydrolysis assay at a final concentration of 20 μM. DMSO was used to determine the maximal ATPase activity and a blank with ATP in absence of Pma1 protein was used to determine the level of spontaneous ATP hydrolysis and used to determine background level. The percentage of compound inhibition was evaluated by subtracting the blank from each data point and normalizing to maximal ATP hydrolysis activity. […] Pma1 inhibitory hit compounds (IC50 <20 μM) with antifungal activity on both S. cerevisiae and C. albicans (MIC <100 μM) were re-purchased and re-evaluated to confirm the potency and identity of the compound.
# Plasma membranes containing Pma1 were isolated from Saccharomyces cerevisiae RS72 cells containing the full-length cDNA of the S. cerevisiae plasma membrane H^+-ATPase isoform PMA1 under control of the PMA1 promoter as described.
# ATPase activity was determined by measuring the amount of liberated phosphate from ATP hydrolysis. The ATPase assay was performed in 96 well plates in a final reaction volume of 60 μL. 0.1–0.2 μg/well of DOC extracted SERCA membrane or the Na^+,K^+-ATPase was used, while 1–2.5 μg/well was used of the Pma1 membrane preparation. Reactions, including protein membrane preparation and various concentrations of exogenously added compounds, were conducted in the following buffers; Pma1 buffer: 17.5 mM MOPS-NaOH pH 7, 7 mM MgSO4, 44 mM KNO3 (vacuolar ATPase inhibitor), 22 mM NaN3 (mitochondrial ATPase inhibitor), 0.22 mM Na2MoO4 (acid phosphatase inhibitor); SERCA buffer: 9 mM MOPS-NaOH pH 7, 2.7 mM MgCl2, 0.1 mM CaCl2 and 72 mM KCl. Na^+,K^+-ATPase buffer: 30 mM MOPS-NaOH pH 7, 40 mM NaCl, 4 mM MgCl2 and 20 mM KCl. Reactions were initiated by the addition of Na-ATP to a final concentration of 2.5 mM (Pma1 and Na^+,K^+-ATPase) or 5 mM (SERCA), followed by 30 minutes incubation at 30°C. […] Absorption was measured at 860 nm after additional 30 minutes incubation at RT.
# [11] = system: Candida albicans; test: Fungal growth inhibition, C. albicans (library hits, Tables A and B); type: cell-based; details: ATCC90028, read-out: Growth inhibition MIC Candida albicans
# Method: (§3) The compound libraries were purchased from Enamine Ltd, Ukraine and Chembridge Corp, USA. Library screening was performed in 96 well plates format and each compound was screened in the ATP hydrolysis assay at a final concentration of 20 μM. DMSO was used to determine the maximal ATPase activity and a blank with ATP in absence of Pma1 protein was used to determine the level of spontaneous ATP hydrolysis and used to determine background level. The percentage of compound inhibition was evaluated by subtracting the blank from each data point and normalizing to maximal ATP hydrolysis activity.
# as §1
# [12] = system: HEK293 cells expressing the familial Alzheimer’s disease (FAD)-linked presenilin 1 mutation; set-up: method as in PMID 25514752; details: HEK293 cells expressing FAD-linked presenilin 1 mutation; cited from earlier work
# [13] = system: Saccharomyces cerevisiae; test: Fungal growth inhibition, S. cerevisiae (library hits, Table A); type: cell-based; details: MIC defined as 50% growth inhibition, n = 3, baker's yeast
# Method: as §3, §1
# T1 sequence (P05030 whole entry, canonical isoform): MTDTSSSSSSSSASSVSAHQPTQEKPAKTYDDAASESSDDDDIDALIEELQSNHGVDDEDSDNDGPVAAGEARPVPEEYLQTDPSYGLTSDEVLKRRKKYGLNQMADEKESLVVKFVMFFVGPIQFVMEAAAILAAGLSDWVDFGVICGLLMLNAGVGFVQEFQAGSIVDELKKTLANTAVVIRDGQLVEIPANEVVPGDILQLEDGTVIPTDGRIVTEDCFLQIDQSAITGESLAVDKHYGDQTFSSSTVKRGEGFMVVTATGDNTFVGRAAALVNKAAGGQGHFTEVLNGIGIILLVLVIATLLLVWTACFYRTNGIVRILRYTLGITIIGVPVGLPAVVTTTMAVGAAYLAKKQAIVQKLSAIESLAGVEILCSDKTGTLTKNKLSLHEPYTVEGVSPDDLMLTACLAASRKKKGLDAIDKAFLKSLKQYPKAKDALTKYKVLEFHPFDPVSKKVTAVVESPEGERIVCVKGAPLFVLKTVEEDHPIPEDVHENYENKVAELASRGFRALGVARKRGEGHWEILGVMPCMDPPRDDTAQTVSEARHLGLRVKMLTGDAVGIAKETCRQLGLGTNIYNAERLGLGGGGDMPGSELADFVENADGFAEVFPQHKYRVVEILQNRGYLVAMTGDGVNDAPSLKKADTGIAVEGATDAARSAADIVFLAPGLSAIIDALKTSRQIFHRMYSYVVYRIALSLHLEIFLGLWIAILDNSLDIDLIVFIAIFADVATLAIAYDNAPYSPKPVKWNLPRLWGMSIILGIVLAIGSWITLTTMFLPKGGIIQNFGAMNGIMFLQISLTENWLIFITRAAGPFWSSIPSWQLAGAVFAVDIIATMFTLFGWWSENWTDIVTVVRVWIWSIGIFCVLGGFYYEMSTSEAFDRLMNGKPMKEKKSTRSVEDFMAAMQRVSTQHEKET
SMILES,MIC [1] [µM],MIC [2] [µM],MIC [3] [µM],MIC [4] [µM],MIC [6] [µM],IC50 [10] [µM],MIC [11] [µM],MIC [13] [µM],other results
"C[C@@H]1[C@H](O)[C@@H](C)/C=C/C=C/C=C/C=C/C=C/C=C/C=C/[C@H](O[C@@H]2O[C@H](C)[C@@H](O)[C@H](N)[C@@H]2O)C[C@@H]2O[C@](O)(C[C@@H](O)C[C@@H](O)[C@H](O)CC[C@@H](O)C[C@@H](O)CC(=O)O[C@H]1C)C[C@H](O)[C@H]2C(=O)O [AMB, amphotericin B, reference compound]",0.18 ± 0.08,0.44 ± 0.34,0.1 ± 0.04,0.1 ± 0.04,0.02 ± 0.01,–,–,–,"Post-antifungal effect (PAFE) [5]: 7 h; Fungicidal or fungistatic activity in time-kill (in words) [7]: fungicidal after 3 h exposure; EC50 [8]: 0.69 ± 0.01 µM; EC50 ([8]; Homo sapiens, HepG2, 72 h): < 1 µM"
"CC(=O)C1=C(O)[C@@H]2[C@H]3c4c[nH]c5cccc(c45)C[C@H]3C(C)(C)N2C1=O [CPA, cyclopiazonic acid]",–,–,–,–,–,–,–,–,"Activity against Na^+,K^+-ATPase (in words) [9]: inactivity"
Brc1ccc2[nH]c3c(c2c1)CCCC3NCCc1ccccc1 (centres unmarked) [Compound 1],–,–,–,–,–,18.2 ± 4.7,20,10,Effect on enhanced calcium release from the endoplasmic reticulum (in words) [12]: reduce the enhanced calcium release
Brc1ccc2[nH]c3c(c2c1)CCCC3NCc1ccccc1 (centres unmarked) [Compound 2],–,–,–,–,–,12.9 ± 3.2,10,12,Effect on enhanced calcium release from the endoplasmic reticulum (in words) [12]: reduce the enhanced calcium release
Cc1ccc2[nH]c3c(c2c1)CCCC3NCc1ccc(Cl)cc1 (centres unmarked) [Compound 3],–,–,–,–,–,14.8 ± 3.5,5,12,–
"OC(Cn1cncn1)(Cn1cncn1)c1ccc(F)cc1F [FLC, fluconazole, reference compound]",> 208,67.2 ± 27,0.75 ± 0.48,26.1,20.7 ± 8.68,–,–,–,EC50 ([8]; Homo sapiens): > 50 µM
"C[C@@H](c1ncncc1F)[C@](O)(Cn1cncn1)c1ccc(F)cc1F [VRC, voriconazole, reference compound]",6.11 ± 2.64,1.02 ± 0.7,0.03 ± 0.02,0.61 ± 0.28,0.27 ± 0.19,–,–,–,Post-antifungal effect (PAFE) [5]: no significant delay in growth; Fungicidal or fungistatic activity in time-kill (in words) [7]: fungistatic activity after both 3 and 24 h of incubation; EC50 ([8]; Homo sapiens): > 50 µM
